According to BigSolDB 2.1:

FC(F)(F)c1cccnc1Cl
solubility (mole fraction)
Conditions | 263.15 K | 268.15 K | 273.15 K | 278.15 K | 283.15 K | 288.15 K | 293.15 K | 298.15 K | 303.15 K
in ethanol | 0.0807 | 0.112 | 0.141 | 0.186 | 0.262 | 0.363 | 0.476 | 0.621 | 0.831
in ethyl acetate | 0.306 | 0.35 | 0.399 | 0.455 | 0.508 | 0.583 | 0.652 | 0.739 | 0.824
in n-butanol | 0.0947 | 0.118 | 0.14 | 0.183 | 0.229 | 0.284 | 0.345 | 0.421 | 0.51
